Measurements published in ChEMBL document CHEMBL1201862, “PubChem BioAssay data set” (2004).
Active and inactive are the calls of the source.

What was measured:
[1] = biological target: T1, Replicative DNA helicase DnaB (Mycobacterium tuberculosis, UniProt P9WMR3); test: DnaB intein splicing inhibitors, dose response, biochemical, cell-free fluorescence (AID 449749); type: functional
T1 sequence (P9WMR3 whole entry): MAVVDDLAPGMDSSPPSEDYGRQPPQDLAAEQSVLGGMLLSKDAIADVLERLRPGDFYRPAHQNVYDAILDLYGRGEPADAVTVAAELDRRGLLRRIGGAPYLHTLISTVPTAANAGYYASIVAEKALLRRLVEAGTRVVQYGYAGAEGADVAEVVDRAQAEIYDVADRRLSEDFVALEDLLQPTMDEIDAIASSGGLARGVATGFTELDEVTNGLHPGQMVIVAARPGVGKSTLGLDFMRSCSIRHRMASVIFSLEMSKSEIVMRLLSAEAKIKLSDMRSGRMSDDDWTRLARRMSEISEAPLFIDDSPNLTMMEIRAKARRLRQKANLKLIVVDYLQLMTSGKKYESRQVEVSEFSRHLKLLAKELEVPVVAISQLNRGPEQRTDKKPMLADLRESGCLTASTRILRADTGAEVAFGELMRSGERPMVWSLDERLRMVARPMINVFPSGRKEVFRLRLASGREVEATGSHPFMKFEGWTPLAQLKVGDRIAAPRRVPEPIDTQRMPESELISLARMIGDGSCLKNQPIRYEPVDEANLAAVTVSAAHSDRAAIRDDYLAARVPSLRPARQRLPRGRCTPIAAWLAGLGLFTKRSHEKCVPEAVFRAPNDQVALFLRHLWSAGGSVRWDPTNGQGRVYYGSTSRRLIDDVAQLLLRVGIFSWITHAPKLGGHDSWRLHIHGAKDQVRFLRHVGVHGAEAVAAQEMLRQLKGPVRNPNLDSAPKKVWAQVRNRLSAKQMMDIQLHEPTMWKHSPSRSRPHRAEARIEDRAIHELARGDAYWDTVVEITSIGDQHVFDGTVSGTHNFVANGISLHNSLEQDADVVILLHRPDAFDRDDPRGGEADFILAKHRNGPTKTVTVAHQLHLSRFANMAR

[2] = biological target: T2, Protein RecA (Mycobacterium tuberculosis, UniProt P9WHJ3); test: Fluorescence Cell-Free Homogeneous Dose Retest to Identify Inhibitors of RecA-Intein Splicing Activity. [Related pubchem assays (depositor defined):AID2097, AID2223, AID489010, AID492950]; type: functional
T2 sequence (P9WHJ3 whole entry): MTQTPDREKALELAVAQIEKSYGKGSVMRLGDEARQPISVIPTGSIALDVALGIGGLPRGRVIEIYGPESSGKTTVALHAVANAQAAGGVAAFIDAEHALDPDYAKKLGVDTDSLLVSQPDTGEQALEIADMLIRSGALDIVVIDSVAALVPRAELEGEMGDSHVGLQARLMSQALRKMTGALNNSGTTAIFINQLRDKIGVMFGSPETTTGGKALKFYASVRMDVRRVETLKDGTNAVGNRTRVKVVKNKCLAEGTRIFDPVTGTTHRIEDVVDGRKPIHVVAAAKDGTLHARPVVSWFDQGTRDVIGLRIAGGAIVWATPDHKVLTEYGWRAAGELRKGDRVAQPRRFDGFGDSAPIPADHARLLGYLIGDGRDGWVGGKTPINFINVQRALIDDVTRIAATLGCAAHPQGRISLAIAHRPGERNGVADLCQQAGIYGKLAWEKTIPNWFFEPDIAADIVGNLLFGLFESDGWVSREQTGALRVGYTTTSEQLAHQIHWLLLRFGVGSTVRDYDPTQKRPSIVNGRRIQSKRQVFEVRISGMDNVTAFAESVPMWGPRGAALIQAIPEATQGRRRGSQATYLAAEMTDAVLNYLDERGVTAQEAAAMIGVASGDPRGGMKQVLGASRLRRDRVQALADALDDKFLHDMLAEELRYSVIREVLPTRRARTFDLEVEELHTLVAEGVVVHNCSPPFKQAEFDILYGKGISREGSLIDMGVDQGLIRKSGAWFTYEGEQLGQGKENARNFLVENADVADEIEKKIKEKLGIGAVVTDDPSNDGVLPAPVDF

[3] = biological target: Genome polyprotein (dengue virus type 2, UniProt P29990); test: Dengue-2 NS5 methyltransferase inhibitors, primary screen, biochemical, confirmation dose response (AID 588689); type: functional
[4] = test system: Vero; test: cells; type: functional, cell-based; settings: Chlorocebus sabaeus
[5] = biological target: T3, Coagulation factor XII (Homo sapiens, UniProt P00748); type: functional;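 also: activated factor XIIa alpha cleaving a fluorogenic AMC peptide substrate; inhibitor potency from loss of enzyme activity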
T3 sequence (P00748 whole entry): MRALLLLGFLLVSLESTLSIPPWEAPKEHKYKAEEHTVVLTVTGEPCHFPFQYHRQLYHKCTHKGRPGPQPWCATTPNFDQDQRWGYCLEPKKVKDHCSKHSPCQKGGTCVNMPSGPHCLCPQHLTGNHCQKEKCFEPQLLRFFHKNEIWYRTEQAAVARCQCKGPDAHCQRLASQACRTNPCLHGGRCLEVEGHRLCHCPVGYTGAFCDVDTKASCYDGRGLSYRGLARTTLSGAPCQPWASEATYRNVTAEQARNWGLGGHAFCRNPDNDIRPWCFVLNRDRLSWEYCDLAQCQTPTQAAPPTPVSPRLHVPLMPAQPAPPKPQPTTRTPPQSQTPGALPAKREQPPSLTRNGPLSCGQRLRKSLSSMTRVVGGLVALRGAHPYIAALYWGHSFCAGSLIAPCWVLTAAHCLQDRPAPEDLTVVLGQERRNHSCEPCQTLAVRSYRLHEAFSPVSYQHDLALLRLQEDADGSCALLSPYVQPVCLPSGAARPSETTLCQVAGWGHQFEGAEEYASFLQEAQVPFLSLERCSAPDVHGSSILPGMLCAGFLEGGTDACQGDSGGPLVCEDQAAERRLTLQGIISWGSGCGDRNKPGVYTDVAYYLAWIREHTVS

[6] = biological target: Cytochrome P450 2C19 (Homo sapiens, UniProt P33261); test: Cytochrome panel assay with activity outcomes. Panel member name: p450-cyp2c19 Compounds with AC50 equal or less than 10 uM are considered active; type: functional; settings: read-out: AC50
[7] = biological target: T4, Cytochrome P450 2C9 (Homo sapiens, UniProt P11712)
[8] = THP-1 cell cytotoxicity, dose response, cytotoxicity control for non-replicating M. tuberculosis project (AID 489025); type: functional
[9] = cells; type: functional
[10] = inhibitors of intracellular T. cruzi replication, confirmation, NIH3T3 host cells, beta-gal luminescence (AID 2044); type: functional, cell-based;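 also: intracellular parasites grown in NIH/3T3 mouse fibroblasts as host cells; luminescent beta-galactosidase reporter signal from transgenic T. cruzi replicating inside host cells; inhibitors lower the luminescence signal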
[11] = test system: INS1; test: beta cell apoptosis inhibitors, cytokine rescue, dose response, luminescence, retest (AID 449756); type: functional, cell-based; settings: Rattus norvegicus;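 also: cell death triggered by IL-1 beta plus TNF-alpha plus IFN-gamma mixture; protective hits raise ATP signal compared with cytokine alone wells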
[12] = cytotoxicity toward NIH3T3 fibroblasts, dose response, counter-screen, cell-based, ATP luminescence, mouse fibroblasts (AID 2010); type: functional;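 also: cells exposed to compound for about 90 hours before reading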
[13] = biological target: T5, Microphthalmia-associated transcription factor (Homo sapiens, UniProt O75030); test: TRPM1 promoter luciferase signal decrease, dose response, MITF inhibitor project, cell-based, SK-MEL-5, cherry-picked, set 3 (AID 493073); type: functional
T5 sequence (O75030 whole entry): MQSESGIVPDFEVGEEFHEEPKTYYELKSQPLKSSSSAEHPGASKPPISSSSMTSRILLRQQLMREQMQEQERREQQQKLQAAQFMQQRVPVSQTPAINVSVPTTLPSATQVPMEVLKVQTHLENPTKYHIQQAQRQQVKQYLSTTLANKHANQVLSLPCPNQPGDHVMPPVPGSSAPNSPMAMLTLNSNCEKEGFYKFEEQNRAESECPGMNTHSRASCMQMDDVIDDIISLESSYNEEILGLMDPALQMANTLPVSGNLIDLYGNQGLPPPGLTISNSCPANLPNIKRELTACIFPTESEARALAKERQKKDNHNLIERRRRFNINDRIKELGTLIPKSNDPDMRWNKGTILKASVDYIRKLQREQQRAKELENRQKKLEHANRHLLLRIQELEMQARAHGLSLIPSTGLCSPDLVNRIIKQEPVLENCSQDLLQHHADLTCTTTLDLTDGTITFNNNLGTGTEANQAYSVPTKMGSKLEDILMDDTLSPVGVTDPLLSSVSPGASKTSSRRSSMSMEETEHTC

[14] = Luminescence Cell-Based Dose Response HTS to Identify Inhibitors of 5'UTR Stem-Loop Driven Prion Protein mRNA Translation in H4 Neuroglioblastoma Cells. [Related pubchem assays: 1827 (Project Summary), 1813 (Primary HTS)]; type: functional
[15] = inhibitors of firefly luciferase expression or activity, dose response, H4 neuroglioma cells, luminescence (AID 1990); type: functional, cell-based
[16] = inhibitors of SNCA 5'UTR-driven reporter translation, confirmation, H4 neuroglioma cells, luminescence (AID 1988); type: functional, cell-based
[17] = biological target: T6, Polyadenylate-binding protein 1 (Homo sapiens, UniProt P11940); test: PABP1 MLLE–PAM2 interaction inhibitors, dose response, miRNA deadenylation inhibitor project, biochemical, fluorescence polarization, Cy5-PAM2 peptide, secondary (AID 602260); type: functional; settings: read-out: IC50_Mean
[18] = biological target: T7, High affinity choline transporter 1 (Homo sapiens, UniProt Q9GZV3); test: CHT inhibitors, dose response, cell-based, 5-point CRC, membrane potential dye (AID 504840); type: functional
T7 sequence (Q9GZV3 whole entry): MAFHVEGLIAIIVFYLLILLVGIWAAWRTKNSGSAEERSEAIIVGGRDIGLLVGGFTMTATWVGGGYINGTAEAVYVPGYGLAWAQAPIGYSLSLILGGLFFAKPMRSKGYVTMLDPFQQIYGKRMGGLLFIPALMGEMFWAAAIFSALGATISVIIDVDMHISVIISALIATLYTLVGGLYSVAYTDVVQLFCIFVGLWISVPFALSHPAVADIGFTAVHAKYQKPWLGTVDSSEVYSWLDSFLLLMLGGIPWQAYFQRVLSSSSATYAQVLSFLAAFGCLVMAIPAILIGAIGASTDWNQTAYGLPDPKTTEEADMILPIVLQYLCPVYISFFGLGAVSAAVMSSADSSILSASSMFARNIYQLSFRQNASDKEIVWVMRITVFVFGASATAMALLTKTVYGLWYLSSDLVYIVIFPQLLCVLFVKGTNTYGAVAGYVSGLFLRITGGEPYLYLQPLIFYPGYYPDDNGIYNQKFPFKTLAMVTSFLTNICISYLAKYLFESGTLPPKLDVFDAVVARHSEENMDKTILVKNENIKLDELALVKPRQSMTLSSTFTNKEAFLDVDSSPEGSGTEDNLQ

[19] = biological target: T6, Polyadenylate-binding protein 1; test: PABP1 MLLE–PAM2 binding inhibitor potency, dose response, biochemical, fluorescence polarization, FITC-PAM2 peptide (AID 602259); type: functional; settings: read-out: IC50_Mean
[20] = biological target: T4, Cytochrome P450 2C9; remark: listed apart in the source
[21] = biological target: Cytochrome P450 3A4 (Homo sapiens, UniProt P08684);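 also: CYP3A4 tested as one member of a cytochrome P450 panel screen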
[22] = biological target: Cytochrome P450 2D6 (Homo sapiens, UniProt P10635)
Chain of Cytochrome P450 2D6 (P10635 whole entry): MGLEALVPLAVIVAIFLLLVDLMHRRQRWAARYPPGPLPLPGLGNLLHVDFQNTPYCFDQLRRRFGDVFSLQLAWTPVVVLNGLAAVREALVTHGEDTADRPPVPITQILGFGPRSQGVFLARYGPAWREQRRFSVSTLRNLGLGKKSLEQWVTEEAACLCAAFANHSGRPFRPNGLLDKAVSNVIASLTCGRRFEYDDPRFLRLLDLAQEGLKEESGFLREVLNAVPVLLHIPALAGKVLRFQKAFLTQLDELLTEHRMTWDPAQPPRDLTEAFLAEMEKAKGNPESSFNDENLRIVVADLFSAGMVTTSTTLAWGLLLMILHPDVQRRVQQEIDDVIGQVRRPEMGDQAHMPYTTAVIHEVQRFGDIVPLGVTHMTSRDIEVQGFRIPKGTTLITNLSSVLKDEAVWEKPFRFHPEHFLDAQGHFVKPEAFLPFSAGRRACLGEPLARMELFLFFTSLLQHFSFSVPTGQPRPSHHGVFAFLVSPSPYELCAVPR

T4 sequence (P11712 whole entry): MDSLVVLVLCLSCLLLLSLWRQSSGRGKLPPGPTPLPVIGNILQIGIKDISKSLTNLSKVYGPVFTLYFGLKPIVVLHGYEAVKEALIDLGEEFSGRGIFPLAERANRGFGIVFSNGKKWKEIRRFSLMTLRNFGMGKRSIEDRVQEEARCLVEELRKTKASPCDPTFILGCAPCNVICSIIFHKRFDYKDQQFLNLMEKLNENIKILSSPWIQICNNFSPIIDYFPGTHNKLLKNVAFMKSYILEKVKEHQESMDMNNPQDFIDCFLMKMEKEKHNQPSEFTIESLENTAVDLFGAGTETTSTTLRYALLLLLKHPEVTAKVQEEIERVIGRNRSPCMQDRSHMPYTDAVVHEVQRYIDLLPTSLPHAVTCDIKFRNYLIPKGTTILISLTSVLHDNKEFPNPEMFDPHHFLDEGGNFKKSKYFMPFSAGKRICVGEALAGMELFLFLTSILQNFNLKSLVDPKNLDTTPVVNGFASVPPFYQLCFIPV
Chain of Cytochrome P450 2C19 (P33261 whole entry): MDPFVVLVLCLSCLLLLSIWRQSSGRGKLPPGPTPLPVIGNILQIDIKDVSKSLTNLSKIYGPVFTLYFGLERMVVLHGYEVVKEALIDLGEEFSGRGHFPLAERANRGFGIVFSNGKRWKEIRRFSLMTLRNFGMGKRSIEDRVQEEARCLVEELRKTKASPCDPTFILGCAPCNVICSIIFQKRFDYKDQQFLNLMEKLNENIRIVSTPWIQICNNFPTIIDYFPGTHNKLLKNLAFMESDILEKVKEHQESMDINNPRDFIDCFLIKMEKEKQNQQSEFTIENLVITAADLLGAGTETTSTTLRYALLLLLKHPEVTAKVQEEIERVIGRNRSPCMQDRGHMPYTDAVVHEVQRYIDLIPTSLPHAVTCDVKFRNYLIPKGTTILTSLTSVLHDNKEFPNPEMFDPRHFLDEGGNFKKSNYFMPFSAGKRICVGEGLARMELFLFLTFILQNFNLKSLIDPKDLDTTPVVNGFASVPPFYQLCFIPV
Chain of Genome polyprotein (P29990 2492-3391 limits assumed): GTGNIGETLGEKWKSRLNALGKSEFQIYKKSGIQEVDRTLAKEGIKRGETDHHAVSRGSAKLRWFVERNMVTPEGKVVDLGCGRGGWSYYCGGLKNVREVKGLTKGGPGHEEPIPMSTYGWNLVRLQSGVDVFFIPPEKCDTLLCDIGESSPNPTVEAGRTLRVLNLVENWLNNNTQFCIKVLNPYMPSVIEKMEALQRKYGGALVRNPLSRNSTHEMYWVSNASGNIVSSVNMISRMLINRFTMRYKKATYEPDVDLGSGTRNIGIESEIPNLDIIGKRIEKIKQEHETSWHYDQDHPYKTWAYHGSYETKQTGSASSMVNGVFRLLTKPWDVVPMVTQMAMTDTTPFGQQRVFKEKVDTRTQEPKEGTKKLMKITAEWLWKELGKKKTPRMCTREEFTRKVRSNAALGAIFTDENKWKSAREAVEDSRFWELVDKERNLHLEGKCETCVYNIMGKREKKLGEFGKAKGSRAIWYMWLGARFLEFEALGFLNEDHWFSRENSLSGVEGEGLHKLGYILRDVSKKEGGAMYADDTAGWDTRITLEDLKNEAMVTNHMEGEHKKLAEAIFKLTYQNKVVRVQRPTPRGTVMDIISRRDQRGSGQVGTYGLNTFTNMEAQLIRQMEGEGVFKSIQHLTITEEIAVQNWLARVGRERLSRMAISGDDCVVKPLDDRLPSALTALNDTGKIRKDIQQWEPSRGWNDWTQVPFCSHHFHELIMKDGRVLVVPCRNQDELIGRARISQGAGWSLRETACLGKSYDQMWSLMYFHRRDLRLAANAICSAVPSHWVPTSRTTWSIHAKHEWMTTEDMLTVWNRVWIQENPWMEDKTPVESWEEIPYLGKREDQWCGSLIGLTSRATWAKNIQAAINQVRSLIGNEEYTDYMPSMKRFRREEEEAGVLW
T6 sequence (P11940 whole entry): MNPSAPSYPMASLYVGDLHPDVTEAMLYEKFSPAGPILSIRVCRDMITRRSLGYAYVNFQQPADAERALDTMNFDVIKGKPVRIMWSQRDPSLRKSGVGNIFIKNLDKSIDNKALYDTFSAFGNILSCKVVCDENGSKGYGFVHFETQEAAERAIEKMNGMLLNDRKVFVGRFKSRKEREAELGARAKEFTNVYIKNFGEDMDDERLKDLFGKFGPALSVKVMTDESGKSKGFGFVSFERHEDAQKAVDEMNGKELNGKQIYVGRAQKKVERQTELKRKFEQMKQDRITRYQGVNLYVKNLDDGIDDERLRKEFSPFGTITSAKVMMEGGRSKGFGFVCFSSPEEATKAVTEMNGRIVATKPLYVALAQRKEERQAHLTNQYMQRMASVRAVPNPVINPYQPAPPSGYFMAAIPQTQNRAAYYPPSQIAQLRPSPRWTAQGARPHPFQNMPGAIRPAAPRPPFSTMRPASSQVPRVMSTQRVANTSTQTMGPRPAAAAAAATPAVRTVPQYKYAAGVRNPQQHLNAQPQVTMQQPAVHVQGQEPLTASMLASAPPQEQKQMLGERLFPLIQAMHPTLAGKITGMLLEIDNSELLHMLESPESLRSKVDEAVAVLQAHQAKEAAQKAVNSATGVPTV
Chain of Cytochrome P450 3A4 (P08684 whole entry): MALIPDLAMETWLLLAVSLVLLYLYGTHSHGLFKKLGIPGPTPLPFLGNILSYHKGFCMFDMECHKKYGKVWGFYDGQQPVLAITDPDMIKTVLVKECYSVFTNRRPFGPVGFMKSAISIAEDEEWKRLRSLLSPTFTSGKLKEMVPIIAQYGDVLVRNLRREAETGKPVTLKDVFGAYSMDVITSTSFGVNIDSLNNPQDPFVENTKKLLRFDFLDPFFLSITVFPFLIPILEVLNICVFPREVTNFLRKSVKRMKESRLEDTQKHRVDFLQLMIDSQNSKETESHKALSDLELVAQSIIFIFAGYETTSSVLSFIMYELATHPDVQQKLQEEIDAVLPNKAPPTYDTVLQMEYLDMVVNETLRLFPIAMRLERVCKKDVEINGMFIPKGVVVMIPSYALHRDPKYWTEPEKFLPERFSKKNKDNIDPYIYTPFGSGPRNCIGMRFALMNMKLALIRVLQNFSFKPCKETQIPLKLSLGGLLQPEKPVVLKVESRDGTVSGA

C#CCOc1ccc(/C=C2/C(=O)N(c3cccc(C(=O)O)c3)N=C2C)cc1OC
AC50 [1]: 2.41 µM (active) | EC50 [2]: 2.01 µM (active) | IC50 [3]: 8.42 µM (active)

OC1(c2cccs2)C[N+](c2ccc(Br)cc2)=C2SCCCN21 (stereo not drawn)
IC50 [4]: 14.9 µM (active)

CS(=O)(=O)N(Cc1ccccc1)c1ccc(C(=O)NC2CCCCC2O)cc1 (stereo not drawn)
IC50 [5]: > 50 µM (inactive)

CC(C)OC(=O)c1cccc(NC(=O)CSc2nnc(N)s2)c1
IC50 [5]: > 50 µM (inactive)

Cc1ccccc1-c1nc(N2CCOCC2)c2ccccc2n1
AC50 [6]: 39.8 µM (inconclusive) | AC50 [7]: inconclusive

COc1ccc(C(=O)NCC(=O)N/N=C/c2ccc([N+](=O)[O-])o2)cc1OC
CC50 [8]: 24 µM (active) | IC50 [9]: 4.08 µM (active)

COc1cc(NC(=O)c2ccc([N+](=O)[O-])o2)ccc1NC(=O)c1cccs1
EC50 [10]: 548 nM (active) | AC50 [11]: 11.2 µM (active) | EC50 [12]: > 60 µM (not active) | AC50 [13]: 8.46 µM (active)

O=C(CCl)N(Cc1cc(O)nc2ccccc12)c1ccccc1
AC50 [1]: 5.06 µM (active) | EC50 [2]: 2.38 µM (active) | AC50 [13]: 5.42 µM (active)

Nc1[nH]nc2nc(NCc3ccccc3)c3c(c12)CCN(Cc1ccccc1)C3
IC50 [4]: > 25 µM (active) | EC50 [14]: 16.3 µM (active) | EC50 [15]: 20.1 µM (active) | EC50 [16]: > 120 µM (not active)

CCCn1cc(CN2CCCC(C(=O)c3cccc(OC)c3)C2)c(C)n1 (stereo not drawn)
IC50 [5]: > 50 µM (inactive)

CCC(C)[C@H](NC(=O)Nc1ccc(C(C)=O)cc1)C(=O)OC (stereo partly drawn)
IC50 [5]: > 50 µM (inactive)

COc1ccc(CN(C)C(=S)Nc2ccc(Cl)cc2)cc1
IC50 [5]: > 50 µM (inactive)

CCN(CC)c1ccc(/C=N/NS(=O)(=O)c2cccc([N+](=O)[O-])c2)cc1
IC50 [5]: > 50 µM (inactive)

Cc1ccc(NC(S)=Nc2ccc3[nH]c(O)nc3c2)cc1C
IC50 [17]: > 66 µM (inactive) | IC50 [18]: 14.5 µM (active) | IC50 [19]: > 66 µM (inactive)

Cc1nn(CC(=O)N2CCc3ccccc3C2)c(C)c1[N+](=O)[O-]
IC50 [5]: > 50 µM (inactive)

CCCC(=O)/N=C1\SC2CS(=O)(=O)CC2N1c1ccc(CC)cc1 (stereo not drawn)
AC50 [20]: 10 µM (inconclusive) | AC50 [21]: 12.6 µM (inconclusive) | AC50 [22]: 15.8 µM (inconclusive) | IC50 [5]: > 50 µM (inactive)

C=CCSC[C@@H]1Nc2cc(Cl)c(S(N)(=O)=O)cc2S(=O)(=O)N1
AC50 [7]: inconclusive

Cc1cccc(-n2cccc2)c1C#N
AC50 [7]: inconclusive

COc1ccc(C(=O)NC2CCCc3c2cnn3-c2cccc(C)c2C)o1 (stereo not drawn)
IC50 [4]: > 25 µM (active)

CCOc1cc2c(C)cc(=O)oc2cc1Cl
AC50 [6]: 14.1 µM (inconclusive) | AC50 [7]: inconclusive

O=[N+]([O-])c1cccc(/C=C/c2nc(O)nc(O)c2[N+](=O)[O-])c1
IC50 [3]: 72.8 µM (active)

CCC(C)n1nnc2c(=O)oc3ccccc3c21 (stereo not drawn)
AC50 [6]: 8.91 µM (inconclusive) | AC50 [7]: inconclusive | IC50 [9]: 5.77 µM (active)

Cc1cccc2cc(=O)[nH]c(C)c12
AC50 [7]: inconclusive
